The results in this text go back to a melting point compilation (Tetko et al.; mined from patent text by program, amines drawn as free bases though some values may be those of a salt).

Bounds are passed on as bounds.

In general, melting point refers to the temperature, or range, at which the solid turns liquid. `COc1ccc(Oc2cc3c(cc2Cl)C=C(C(=O)O)C(C(F)(F)F)O3)cc1` (centres undefined): the melting point is 213 to 214 °C.
In the case of `CCC(C)c1c(O)ccc2c1oc1ccc(C#N)cc12` (centres undefined) it was 206 to 207 °C.
`O=C(CNC(=O)c1nc2ccc(Oc3cccc(C(F)(F)F)c3)cc2cc1OCc1ccccc1)OCc1ccccc1`: the melting point is 103 to 105 °C.
With `CC(C)N(Sc1nc2ccccc2s1)C(C)C`, the melting point was in the range of 57 to 59 °C.
With `COc1ccc(Nc2nc(NC3CCCCCC3)nc(Oc3ccccc3C#CC(C)(C)O)n2)cc1Cl`, the melting point is 150 to 158 °C.
In the case of `CCCCc1cc2cc(NC(C)=O)ccc2o1` it was 71 to 73 °C.
Molecule `COC(=O)CC1=C(C)Cc2cc(F)c(OC)cc21` registered a melting point of 61 to 62 °C.
Regarding `CC(C)C(C(N)=S)N(C)C(=O)OCc1ccccc1` (centres undefined), the melting point was 130 °C.
Molecule `CCC(=O)Cc1cc(OC)ccc1NC(=O)OC(C)(C)C` came in with a melting point of 80 to 81 °C.
The molecule `CC(C)(C)NCC(O)COc1ccc2c(c1-c1nc(C(F)(F)F)c[nH]1)CCCC2` (centres undefined) displayed a melting point of 203 to 205 °C.
Regarding `CCOC(=O)N(c1ccc(Cl)cc1)c1ccccc1N=NC(NC(=O)CCl)(C(=O)OCC)C(=O)OCC`, the melting point is 80 to 85 °C.
With `Cc1cc(-n2cccn2)c2cccc(OCc3c(Cl)ccc(S(=O)(=O)N4CCC[C@H]4C(=O)O)c3Cl)c2n1`, the melting point amounted to 148 °C.
For the molecule `Cc1cc(-c2ccc(C(F)(F)F)cc2)nc(-c2ccnc(-c3cccc(S(N)(=O)=O)c3)c2)n1`, the melting point stood at 218 °C.
In turn, `O=C1Nc2ccccc2CCC1Cl` (centres undefined) came in with a melting point of 163 to 167 °C.
In turn, `O=C(O)c1ccc2cc([N+](=O)[O-])c3ccc(C(=O)O)nc3c2n1` yielded a melting point of 218 to 220 °C.
In the case of `CC(=O)c1cccc(C2=C(c3ccc(S(N)(=O)=O)cc3)OC(C)(C)C2=O)c1` it was 217 to 218 °C; in that of `OC(CCc1ccc(F)cc1)c1cnc2sc3c(n12)CCCCC3` (centres undefined), 144 to 146 °C; in that of `CC(C)c1cccc(C(C)C)c1NC(=O)CC(=O)c1ccccc1`, 124 to 126 °C.
The molecule `CCOC(=O)C(Oc1cccc2[nH]ccc12)C(=O)OCC` had a melting point of 52 to 53 °C.
`CCNC(=O)[C@@H]1C[C@H](SCc2ccc(OC)cc2)CN1CC` registered a melting point of 60 to 61 °C.
`C=Cc1ccc2c(c1)C[C@H](C(=O)N1CCC[C@H](C)C1)N2c1cccnn1` displayed a melting point of 206 to 209 °C.
Regarding `N#Cc1cc(-c2ccoc2)c2ccc(OCc3cncc(-c4ccccc4)c3)cc2c1`, the melting point lay in the range of 138 to 140 °C.
Consider `NC(=S)c1c(Cl)cncc1Cl`, for which the melting point was in the range of 186 to 187 °C.
`O=C(O)CCCc1ccc2sc3ccccc3c2c1` gave a melting point of 127 to 128 °C.
In the case of `COC(=O)c1ccc(Br)c(S(C)(=O)=O)c1` it was 148 to 149 °C; in that of `CC(C)=CCCN1C(=O)c2ccccc2C1=O`, 95 to 97 °C.
In the case of `COc1ccc(CNc2cc(Cn3c(C(=O)c4cc(C)cc(C)c4)c(C(C)C)c(=O)[nH]c3=O)cc(F)n2)cc1`, the melting point was 120 to 122 °C.
Consider `COCc1cc(C2=NOC(c3cc(Cl)cc(Cl)c3)(C(F)(F)F)C2)ccc1C(=O)NC(=N)OC` (centres undefined), for which the melting point was in the range of 132 to 134 °C.
The molecule `O=S(=O)(NC1CCC(O)CC1)c1ccc(Cl)cc1` (centres undefined) returned a melting point of 138 to 142 °C.
With `Cc1cc(-c2cc(Cl)ccc2Cl)n2ncc(C#N)c2n1`, the melting point lay in the range of 229 to 230 °C.
The molecule `Cc1cc(C=O)ccc1-c1ccccc1C(F)(F)F` yielded a melting point of 127 to 130 °C.
The molecule `O=C(O)c1cccc(-c2ccc3c(c2)N(c2ccc(Cl)c(Cl)c2)CC3)c1` gave a melting point of 205 to 206 °C.
As for `Cc1c2c3c(ccc2nn1C)CCC3=CC#N`, the melting point was 200 to 203 °C.
The molecule `NC(=O)c1cc(COc2nnc(Nc3ccc(Cl)cc3)c3ccsc23)ccn1` displayed a melting point of 233 °C.
In the case of `O=C1NCc2c1cc1ccc3c(c1c2-c1ccncc1)OCO3` it was 316 to 319 °C; in that of `O=C(Nc1ccc(Nc2ccccc2)cc1)OCCc1ccc([N+](=O)[O-])cc1`, 146 to 148 °C.
In the case of `COC(=O)CCCCCC(O)c1ccc(-n2ccnc2)cc1` (centres undefined) it was 77 to 78 °C; in that of `CCCCC(=N)NC(=O)Nc1ccccc1O`, 173 to 175 °C; in that of `O=C(c1ccc(F)cc1)N1CCC[C@H](c2nc(-c3ccc([N+](=O)[O-])cc3)no2)C1`, 162 to 164 °C.
For `O=[N+]([O-])c1cnccc1NCc1ccc(CO)o1`, the melting point stood at 135 °C.
The molecule `Oc1ccc(-n2nc3c(c2Cl)CCCC3)c(F)c1` displayed a melting point of 214 to 216 °C.
In the case of `O=C(O)CCCCCc1cnc2ccccc2c1` it was 129 to 131 °C; in that of `NC(=O)C1C2C=CC(C2)C1Nc1c(Cl)cnc2[nH]c(-c3ccc4c(c3)CCC3(CCNCC3)O4)nc12` (centres undefined), over 250 °C; in that of `O=C(O)C(O)=CC(=O)c1ccc(Cl)c(Cl)c1`, 180 to 181 °C.
In the case of `O=C(NC1CCN(CCC(O)C(=O)C(O)CCN2CCC(NC(=O)c3ccccc3)CC2)CC1)c1ccccc1` (centres undefined) it was 154 to 155 °C; in that of `COc1cc(CCCC(=O)O)ccc1OCc1nc(-c2ccco2)oc1C`, 129 to 130 °C.
As for `CCCc1c(C(N)=O)sc(SC)c1-c1oncc1-c1ccccc1`, the melting point was 140 to 141 °C.
`CO[C@@H]([C@H](OC)[C@H](O)COS(C)(=O)=O)[C@H](O)COS(C)(=O)=O` had a melting point of 112 to 114 °C.
`CC1=C2CCC3C(CCC4(C)C3CCC4(C)O)C2(C)CC(=CO)C1=O` (centres undefined) returned a melting point of 182 to 188 °C.
For the molecule `O=C1CCCC(CN2CC=C(c3ccccc3)CC2)C1` (centres undefined), the melting point was 56 to 59 °C.
The molecule `COC(=O)c1cc(O)cc2cc(-c3ccc(O)cc3)oc12` came in with a melting point of 236 to 238 °C.
In the case of `CSc1sccc1C#N` it was 112 to 115 °C; in that of `COCC1(C)OC(=O)N(c2cc(Cl)cc(Cl)c2)C1=O` (centres undefined), 108 to 111 °C; in that of `O=C(CCl)NCC1CCCCC1`, 85 to 86 °C.
The molecule `CCc1nc(-c2cccc(C)c2)c(-c2ccnc(CC#N)c2)s1` gave a melting point of 68 to 69 °C.
With `CC(C)(C)OC(=O)N1CCC(C2=C(C#N)C(c3cccc(C#N)c3Br)c3c[nH]nc3N2)CC1` (centres undefined), the melting point was over 270 °C.
In turn, `COC1C(CO)OC(n2c3ccc(C=O)cc3c3c4c(c5c6cc(C=O)ccc6[nH]c5c32)C(=O)NC4=O)C(O)C1O` (centres undefined) came in with a melting point of over 300 °C.
`C[C@]12CC(=O)[C@H]3[C@@H](CCC4=CC(=O)CC[C@@H]43)[C@@H]1CCC2=O` had a melting point of 204 to 209 °C.
For the molecule `C[C@@H]1CN(c2ccc(S(=O)(=O)c3ccccc3)c3ccccc23)C[C@H](C)N1`, the melting point fell in the range of 168 to 169 °C.
`Cc1cc(C)c(-c2cn(C)c3nc(N)n(C)c(=O)c23)c(C)c1` registered a melting point of 229 to 231 °C.
Turning to `N#CC1=C(Nc2cccc(F)c2)CCC1`, the melting point was in the range of 98 to 100 °C.
Regarding `Cn1cnnc1COc1nn2c(-c3ccccc3)nnc2cc1-c1ccccc1`, the melting point fell in the range of 230 to 235 °C.
`Cn1cc(-c2cccc(Cl)c2)c(=O)c(-c2ccccc2Cl)c1`: the melting point fell in the range of 160 to 161 °C.
For the molecule `Clc1ccc2c(c1)CNc1ccccc1C2`, the melting point fell in the range of 132 to 135 °C.
